Laboratory results published in patent US9428536B2, “Immunostimulatory G, U-containing oligoribonucleotides” (Zoetis Belgium SA, priority 2002, dated 2016).
Oligonucleotides are written 5' to 3', each unit as a sugar letter and its base; * is a phosphorothioate linkage, no mark a phosphodiester; rarer units and linkages stand in square brackets, end groups in braces. Plain capitals give the bases only. d = 2'-deoxy (DNA); r = 2'-OH (RNA)

What was measured:
[1] = test system: wild type murine macrophages; assay: Wild type murine macrophages in the presence of IFN-γ, IL-12 p40 ELISA; assay type: cell-based, mouse; conditions: FIG. 6 Panel A, 12 hours, RNA with DOTAP
Procedure: The following murine cells were isolated and incubated with various RNAs and other known TLR ligands in order to assess species-, cell type-, and signaling pathway-specificity: wild type macrophages in the presence of IFN-γ; MyD88-deficient macrophages in the presence of IFN-γ; J774 (mouse macrophage cell line); and RAW 264.7 (mouse macrophage cell line, e.g., ATCC TIB-71). Murine bone macrophages were generated from wild type or MyD88-deficient C57BL/6 mice by culturing bone marrow cells with 50 ng/ml M-CSF for 5 days. Cells were seeded at 25,000 cells/well and treated with 20 ng/ml IFN-γ for 16 hours. The murine macrophage cell lines RAW and J774 were seeded at 10,000 cells/well.
The following test and control agents were examined: R-848 (2 μg/ml), ODN 1668 (CpG DNA; 5′-[…]-3′; SEQ ID NO:7); LPS (1 μg/ml); poly IC (50 μg/ml); Pam3Cys (5 μg/ml); Ionomycin/TPA; the following RNA molecules, each with (“+Lipo”) and without DOTAP (10 μg/200 μl culture well): GUGUUUAC alone (RNA1); GUAGGCAC alone (RNA2); GUGUUUAC in combination with GUAGGCAC (RNA1/2); […] (RNA6; SEQ ID NO:8); […] (RNA9; SEQ ID NO:9); and the following DNA molecules, corresponding to RNA1, RNA2, and RNA1/2: GTGTTTAC alone (DNA1); GTAGGCAC alone (DNA2); and GTGTTTAC in combination with GTAGGCAC (DNA1/2). These RNA and DNA oligonucleotides each contained a phosphorothioate linkage between the penultimate and 3′ terminal nucleoside. RNA6 and RNA9 each contained in addition a phosphorothioate linkage between the penultimate and 5′ terminal nucleoside. RNA6 corresponds to a ribosomal RNA stem loop derived from Listeria monocytogenes. RNA9 corresponds to a stem loop derived from human immunodeficiency virus (HIV, an RNA retrovirus). The cells were cultured for 12 hours and supernatants were harvested. Murine IL-12 p40, IL-6, and TNF-α were measured by ELISA using matched antibody pairs from BD-Pharmingen according to the manufacturer's protocol.

[2] = biological target: T1, human TLR7 (Homo sapiens, UniProt Q9NYK1); assay: NF-κB luciferase reporter in 293 HEK cells transfected with human TLR7; assay type: cell-based; conditions: for human TLR7 response to modified guanosine ribonucleosides: FIG. 18
T1 construct: All full-length TLR fragments were cloned into pGEM-T Easy vector; expressed in transfected cells; host or cells: 293 HEK cells (ATCC), transient electroporation with pcDNA3.1(-) TLR expression plasmid
T1 sequence (Q9NYK1 27-1049): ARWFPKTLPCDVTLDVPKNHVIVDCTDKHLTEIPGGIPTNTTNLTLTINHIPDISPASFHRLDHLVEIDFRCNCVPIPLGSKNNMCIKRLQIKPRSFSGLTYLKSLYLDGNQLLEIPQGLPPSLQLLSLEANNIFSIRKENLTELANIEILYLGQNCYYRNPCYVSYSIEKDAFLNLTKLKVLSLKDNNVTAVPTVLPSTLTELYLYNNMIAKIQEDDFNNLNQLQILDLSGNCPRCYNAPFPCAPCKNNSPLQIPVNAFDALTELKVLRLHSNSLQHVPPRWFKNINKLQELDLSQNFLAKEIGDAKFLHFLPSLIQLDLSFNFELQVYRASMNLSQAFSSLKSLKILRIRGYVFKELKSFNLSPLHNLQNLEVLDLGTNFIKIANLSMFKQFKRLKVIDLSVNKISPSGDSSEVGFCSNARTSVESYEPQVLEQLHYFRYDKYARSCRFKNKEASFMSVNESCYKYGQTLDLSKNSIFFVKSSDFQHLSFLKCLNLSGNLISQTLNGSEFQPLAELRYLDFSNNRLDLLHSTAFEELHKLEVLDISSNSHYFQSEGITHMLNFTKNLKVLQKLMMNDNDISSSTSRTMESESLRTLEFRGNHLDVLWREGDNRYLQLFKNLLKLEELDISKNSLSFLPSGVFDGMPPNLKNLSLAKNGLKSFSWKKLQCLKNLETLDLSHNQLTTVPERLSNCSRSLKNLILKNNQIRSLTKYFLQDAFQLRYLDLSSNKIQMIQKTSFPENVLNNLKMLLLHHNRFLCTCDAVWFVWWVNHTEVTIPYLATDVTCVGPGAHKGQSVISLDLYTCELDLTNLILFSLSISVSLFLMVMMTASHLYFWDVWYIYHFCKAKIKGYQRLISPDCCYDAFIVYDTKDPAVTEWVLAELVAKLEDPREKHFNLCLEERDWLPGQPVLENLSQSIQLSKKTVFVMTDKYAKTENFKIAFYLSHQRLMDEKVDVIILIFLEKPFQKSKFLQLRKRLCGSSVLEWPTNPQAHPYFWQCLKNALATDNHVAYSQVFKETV
Procedure: FIG. 12 depicts the responsiveness of human TLR7 and human TLR8 to ribonucleosides. It was determined that the response by human PBMC to RNA or RVC was mediated by TLR7 or TLR8 and further that the response could be driven by ribonucleosides only. Human 293 cells were either mock-transfected or transfected with human TLR7 or human TLR8 and monitored for responsiveness to ribonucleosides. The open reading frames of human TLR7 (hTLR7) and human TLR8 (hTLR8) were amplified by PCR from a cDNA library of human PBMC using the following primers pairs: for TLR7, 5′-[…]-3′ (SEQ ID NO:15) and 5′-[…]-3′ (SEQ ID NO:16); and for TLR8, 5′-[…]-3′ (SEQ ID NO:17) and 5′-[…]-3′ (SEQ ID NO:18). The sequence information for primer selection was obtained from Genbank accession numbers AF240467 and AF245703. All full-length TLR fragments were cloned into pGEM-T Easy vector (Promega, Mannheim, Germany), excised with NotI, cloned into the expression vector pcDNA 3.1(−) (Invitrogen, Karlsruhe, Germany) and sequenced. Sequences of the coding region of hTLR7 and hTLR8 correspond to the accession numbers AF240467 (SEQ ID NO:25) and AF245703, respectively (SEQ ID NO:29).
For monitoring transient NF-κB activation, 3×10^6 293 HEK cells (ATCC, VA, USA) were electroporated at 200 volt and 960 μF with 1 μg TLR expression plasmid, 20 ng NF-κB luciferase reporter-plasmid and 14 μg of pcDNA3.1(−) plasmid as carrier in 400 μl RPMI medium supplemented with 25% fetal bovine serum (FCS). Cells were seeded at 10^5 cells per well and after over night culture stimulated with R-848 (denoted in FIG. 12 as X; commercially synthesized by GLSynthesis Inc., Worcester, Mass., USA), RVCs or ribonucleosides for a further 7 hours. Stimulated cells were lysed using reporter lysis buffer (Promega, Mannheim, Germany), and lysate was assayed for luciferase activity using a Berthold luminometer (Wildbad, Germany).

[3] = test system: human PBMC; assay: Human PBMC TNF-α secretion, ELISA; assay type: cell-based; conditions: for TNF-α max / EC50: Table 4, DNA:RNA conjugates, human PBMC overnight, including DOTAP; for EC50: read-out: TNF-α EC50
Procedure: Human peripheral blood mononuclear cells (PBMCs) were isolated from healthy donors, plated at 3×10^5 cells/well, stimulated in vitro with various test and control immunostimulatory agents for 16 hours, and then analyzed by enzyme-linked immunosorbent assay (ELISA) using matched antibody pairs from BD-Pharmingen for secreted cytokines IL-12 p40 and TNF-α, performed according to the manufacturer's protocol. Also included were certain negative controls, including medium alone and DOTAP (10 μg/200 μl culture well; “Liposomes”) alone. The control immunostimulatory agents included the imidazoquinolone R-848 (2 μg/ml), lipopolysaccharide (LPS; 1 μg/ml), Pam3Cys (5 μg/ml), poly IC (50 μg/ml), and CpG DNA (50 μg/ml). These are reported ligands for TLR7, TLR4, TLR2, TLR3, and TLR9, respectively. Test immunostimulatory agents included the following RNA molecules, each at 50 μg/ml, with and without DOTAP (10 μg total “with Liposomes” and “without Liposomes”, respectively): GUGUUUAC alone; GUAGGCAC alone; GUGUUUAC in combination with GUAGGCAC; GUAGGA; GAAGGCAC; CUAGGCAC; CUCGGCAC; and CCCCCCCC. These RNA oligonucleotides each contained a phosphorothioate linkage between the penultimate and 3′ terminal nucleoside.
The experiments described in the preceding example were repeated with varied concentrations of RNA oligonucleotides in order to assess the dose-response behavior of human PBMCs to G,U-containing RNA oligonucleotides of the invention. A total of 10, 3 or 1 μg RNA was added to 10 μg DOTAP and then added to the 200 μl culture wells. After 16 hours IL-12 p40 and TNF-α ELISAs were performed as described in Example 1.
In order to investigate the possibility of using cholesteryl ester-modified RNA oligomer in place of RNA oligomer plus cationic lipid, RNA oligomer GUGUGUGU was prepared with (R 1058) and without (R 1006) a 3′ cholesteryl ester modification. These two RNA oligomers with and without DOTAP, were added over a range of concentrations to overnight cultures of human PBMC. Culture supernatants were harvested, and human TNF-α, IL-12 p40, and IFN-α were measured by ELISA using matched antibody pairs from BD-Pharmingen according to the manufacturer's protocol.
(§1) RNA oligomers GUGUGUGU, GUGUGUG, GUGUGU, GUGUG, GUGU, GUG, and GU, with and without DOTAP, were added over a range of concentrations to overnight cultures of human PBMC. Culture supernatants were harvested, and human TNF-α, IL-12 p40, and IFN-α were measured by ELISA using matched antibody pairs from BD-Pharmingen according to the manufacturer's protocol.
as §1, with “oligomers,” for “oligomers GUGUGUGU, GUGUGUG, GUGUGU, GUGUG, GUGU, GUG, and GU,”
(§2) Human PBMC were cultured overnight in the presence of added DNA:RNA conjugate, with and without DOTAP. Culture supernatants were harvested and human TNF-α, IL-6, IL-12 p40, IP-10, and IFN-α were measured by ELISA using matched antibody pairs from BD-Pharmingen according to the manufacturer's protocol.
Human PBMC were cultured overnight in the presence of various concentrations (1, 3, and 10 μg/ml) of tRNA obtained from wheat germ, bovine, yeast, and E. coli sources, added to the culture medium with and without DOTAP. Culture supernatants were harvested and human TNF-α and IL-12 p40 were measured by ELISA using matched antibody pairs from BD-Pharmingen according to the manufacturer's protocol. […] In addition, E. coli tRNA at 3 and 10 μg/ml induced minor amounts of both cytokines even without DOTAP. […]
FIG. 10 depicts the responsiveness of human PBMC to stringent response factor (SRF). SRF is produced by rapidly growing bacteria (in this case Listeria monocytogenes) in rich media until their late log phase. The bacteria were pelleted and resuspended in an equal volume of PBS for 24 h. The mixture is centrifuged to remove the bacteria. […]

[4] = test system: human PBMC; assay: Human PBMC IP-10 secretion, ELISA; assay type: cell-based; conditions: Table 4, DNA:RNA conjugates; human PBMC overnight; including DOTAP
Procedure: as §2

[5] = test system: human PBMC; assay: Human PBMC IL-6 secretion, ELISA; assay type: cell-based; conditions: Table 4, DNA:RNA conjugates; human PBMC overnight; including DOTAP
Procedure: as §2

Row | Molecule | human TLR7 response to modified guanosine ribonucleosides [2] | EC50 [4] [nM] | IP-10 max [4] [pg/mL] | TNF-α max [3] [pg/mL] | EC50 [3] [nM] | EC50 [5] [nM] | IL-6 max [5] [pg/mL] | other results
1 | 5′-TCCATGACGTTCCTGATGCT-3′ (CpG DNA, linkage chemistry not given here, further chemistry not given here) [ODN 1668] | – | – | – | – | – | – | – | IL-12 p40 secretion by wild type murine macrophages [1]: significant amounts
2 | Nc1nc2c(nc(Br)n2[C@@H]2O[C@H](CO)[C@@H](O)[C@H]2O)c(=O)[nH]1 [8-bromo-guanosine, reference compound] | responded mildly | – | – | – | – | – | – | –
3 | Nc1nc2c(ncn2[C@H]2C[C@H](O)[C@@H](CO)O2)c(=O)[nH]1 [deoxy form of guanosine] | responded mildly | – | – | – | – | – | – | –
4 | Nc1nc2c(ncn2[C@@H]2O[C@H](CO)[C@@H](O)[C@H]2O)c(=O)[nH]1 [guanosine] | responsive | – | – | – | – | – | – | response of TLR7 transfectants (NF-κB luciferase) ([2]; FIG. 12, transient transfectants, 7 hours stimulation): responded; responsiveness of TLR7 to ribonucleosides and mixtures of two ([2]; FIG. 13): responded best; stimulation of PBMC to produce TNF ([3]; Example 14, in the absence of vanadate): effective
5 | G*U*G*U*G*U*G*U*dT*dT*dT*dT*dT*dT (rG*rU*rG*rU*rG*rU*rG*rU*dT*dT*dT*dT*dT*dT) [R 1062] | – | 100 | 400 | 80000 | 300 | 400 | 28000 | –
6 | dG*dG*dG*dG_dG_G*U*G*U*G*U*G*U (dG*dG*dG*dGdGrG*rU*rG*rU*rG*rU*rG*rU) [R 1061] | – | 1100 | 180 | 20000 | 4300 | > 20000 | 10000 | –
7 | dT*dT*dT*dT*dT*G*U*G*U*G*U*G*U (dT*dT*dT*dT*dT*rG*rU*rG*rU*rG*rU*rG*rU) [R 1063] | – | 100 | 250 | 60000 | 300 | 800 | 28000 | –
